Measured values reported in patent US11820870B2, “Photocontrolled dynamic covalent linkers for polymer networks” (Northwestern University, priority 2018, dated 2023).

How the values were obtained:
[1] = Pseudo-first-order reversible esterification with pinacol (LCMS kinetics); type: physicochemical
Protocol: A small-molecule model compound, azobenzene 1, was first designed, in which the boronic acid was positioned ortho to the azo group (FIG. 5). Irradiation of (E)-1 with 365-nm light provided a 88:12 mixture of Z and E isomers. This mixture was subjected to excess pinacol in acetonitrile-water (1:1 v/v, 25° C.) to determine the apparent rates and equilibrium constants of boronic acid (1) esterification and boronic ester (2) hydrolysis for each isomer. While other 1,2- and 1,3-diols were hydrolyzed too quickly to be studied, the unusually slow rate of pinacol hydrolysis allowed the E and Z isomers to be resolved and their reaction kinetics to be monitored by high-performance liquid chromatography (HPLC; see Supporting Information (SI) for details).
After 8 hours, the reactions had reached equilibrium, with 39% conversion of (Z)-1 to (Z)-2 and only 9% conversion of (E)-1 to (E)-2 (FIG. 6A). Using a reversible pseudo-first-order kinetic model, it was determined that the esterification of (Z)-1 was 2.1 times faster than the esterification of (E)-1 (k1) (FIG. 6B, Table 1). The rates of hydrolysis could also be extracted from this model: (E)-2 underwent hydrolysis 2.0 times faster than (Z)-2 did (k−1). These apparent rate constants for hydrolysis were verified by hydrolyzing a mixture of (E)-2 and (Z)-2 under irreversible pseudo-first-order conditions (FIGS. 6C and 6D). Taken together, the apparent equilibrium to form boronic ester from boronic acid and pinacol is 4.3 times more favorable for the Z isomer relative to the E isomer. While convenient for small-molecule kinetic studies, the rate of pinacol ester formation is too slow to be practical for gelation. Thus, a less sterically hindered diol was used for hydrogel studies.
Stock solutions of (E)-1 or (E)-2 were prepared in acetonitrile at 800 μM. Serial dilutions were performed to obtain a final concentration of 12.5 μM. The solutions were directly injected onto the LCMS (Poroshell 120 column, EC-C18, 2.7 μm, 2.1×50 mm). Runs were ten minutes long with solvent gradient from 50:50 to 100:0 ACN:H2O in the first three minutes. Detection was performed at 254 nm with a variable-wavelength detector. The peak area for each concentration was recorded. A calibration curve was created. […] The concentration of the Z-isomer can be calculated from the known concentration of the E-isomer (based on the previously-generated calibration curve).
500 μL of a stock solution of 800 μM of (E)-1 was diluted with 500 μL of 80 mM of pinacol in DI water. The concentrations of (E)-1 and (E)-2 were monitored as a function of time using the above LCMS method. The observed rate constants of esterification (k1(E)) and hydrolysis (k−1(E)) were determined using the derivation shown below.
The data from the concentrations vs. time experiments was fit to the linear expression (1) for a reversible first order reaction and yields the slope denoted as equation (4). […] With the apparent equilibrium constant and slope known, the rates of hydrolysis can be determined with equation (5), and subsequently the rate of esterification can be determined.
500 μL of a stock solution of 800 μM of (E)-1 was irradiated with a 365 nm flashlight for 10 minutes to produce a mixture of (E)-1 and (Z)-1. The mixture was then diluted with 500 μL of a 80 mM pinacol solution in DI water, and the concentrations of (E)-2 and (Z)-2 were monitored as a function of time using the above LCMS method. […]

[2] = Pseudo-first-order irreversible hydrolysis of boronic ester (LCMS kinetics); type: physicochemical; details: obtained from the irreversible hydrolysis experiments; 1:1 ACN:H2O; average of three experiments
Protocol: After 8 hours, the reactions had reached equilibrium, with 39% conversion of (Z)-1 to (Z)-2 and only 9% conversion of (E)-1 to (E)-2 (FIG. 6A). Using a reversible pseudo-first-order kinetic model, it was determined that the esterification of (Z)-1 was 2.1 times faster than the esterification of (E)-1 (k1) (FIG. 6B, Table 1). The rates of hydrolysis could also be extracted from this model: (E)-2 underwent hydrolysis 2.0 times faster than (Z)-2 did (k−1). These apparent rate constants for hydrolysis were verified by hydrolyzing a mixture of (E)-2 and (Z)-2 under irreversible pseudo-first-order conditions (FIGS. 6C and 6D). […]
Stock solutions of (E)-1 or (E)-2 were prepared in acetonitrile at 800 μM. […] The peak area for each concentration was recorded. […] The concentration of the Z-isomer can be calculated from the known concentration of the E-isomer (based on the previously-generated calibration curve).
500 μL of a stock solution of 800 μM of (E)-2 was irradiated with a 365 nm flashlight for 10 minutes to produce a mixture of (E)-2 and (Z)-2. The mixture was then diluted with 500 μL of DI H2O and the concentration of (E)-2 and (Z)-2 was monitored as a function of time. The observed rate constants of hydrolysis k−1(E) and k−1(Z) were determined using the derivation shown below. […]

[3] = reversible esterification, 400 μM with 40 mM pinacol, 1:1 ACN:H2O, 25° C., average of three experiments

| SMILES | conversion of boronic acid to boronic ester at equilibrium ([1]; after 8 hours, excess pinacol, acetonitrile-water 1:1 v/v, 25° C.) | Keq [a] apparent equilibrium constant [1, 3] | k1 [a] apparent rate constant of esterification [1, 3] | k−1 [a] apparent rate constant of hydrolysis ([1]; obtained from the reversible esterification experiment, 1:1 ACN:H2O, average of three experiments) | hydrolysis rate (k−1), times faster than (Z)-2 ([1]; ratio E isomer to Z isomer) | k−1 [b] apparent rate constant of hydrolysis [2] |
| --- | --- | --- | --- | --- | --- | --- |
| COC(=O)c1ccc(/N=N/c2ccccc2B(O)O)cc1 [(E)-1, (E)-(2-((4-(methoxycarbonyl)phenyl)diazinyl)phenyl)boronic acid] | 9% | 0.090 ± 0.016 | 2.56 ± 0.28 × 10^−5 s^−1 | – | – | – |
| COC(=O)c1ccc(/N=N/c2ccccc2B2OC(C)(C)C(C)(C)O2)cc1 [(E)-2, Methyl (E)-4-((2-(4,4,5,5-tetramethyl-1,3,2,-dioxaborolan-2-yl)phenyl)diazinyl)benzoate] | – | – | – | 2.76 ± 0.32 × 10^−4 s^−1 | 2.0 times | 2.83 ± 0.06 × 10^−4 s^−1 |
